In patent US20180207228A1, “PEPTIDE COMBINATIONS AND USES THEREOF FOR TREATING GRASS ALLERGY” (ALK-Abelló A/S, priority 2015, published 2018):
Where no end group is shown, it is not given here.

Tests used:
[1] = Bio-stability in 25% human serum (T½, degradation pattern by UHPLC and MS); format: in vitro ADME
Experimental: The supernatant was analyzed by UHPLC-UV/VIS and the peak-height/peak-area of the original peptide was determined at each time point. T½ of the original peptide was estimated by plotting Ln (peak-area) as a function of time. […] Therefore, the degradation pattern of each peptide was additionally studied. Extra peaks compared to the peak of the original peptide in the chromatogram were notified as potential degradation products. To assess the degradation pattern of each peptide and identify degradation products, the test samples were also investigated by mass spectroscopy (MS). Some peptides, for example, may be prone to cleavage by endopeptidases resulting in short peptide fragments unfit for binding to the HLA binding site, whereas other peptides may be more prone to cleavage by exopeptidases which may cleave one or more amino acid residues from the N or C-terminal end of the peptide resulting in a conserved HLA binding. […] Therefore, it is important to look at both the MS data and functional data to estimate the extent and effect of the degradation.

[2] = test system: grass pollen allergic donor derived T cell lines; assay: Dose response titration in T cell proliferation assay; format: cell-based, human; details: single peptides, FIG. 21
Experimental: The dose-response relationship was tested by measuring the percentage of donor response (i.e. the percentage of donor coverage) in concentrations of 2.0, 0.1, 0.005 and 0.00025 μg/ml for the peptide combinations and in concentrations of 2.0, 0.2, 0.02 and 0.002 μg/ml for single peptides. The donor response was determined using T cell proliferation data as described in Example 3.
Relative magnitude value for a peptide or a peptide combination was calculated as percentage of highest T cell response to an allergen or a mix, by the same donor. In this way, allergen or peptide combination with highest magnitude of T cell response gets a value of 100 and T cell response magnitude of remaining peptides/peptide combinations are normalized or calculated relative to 100, for example Relative magnitude=100*(T cell response magnitude of peptide or combination/Highest T cell response in a donor). Relative magnitude were calculated mainly on Phl p 1. For donors non reactive to Phl p 1, Phl p 5 was used as reference
The donors were selected by seeking to maximize the HLA class II diversity in the donor cohort.
For peptide combinations, two set-ups were used:
A) Concentrations of 2.0, 0.1, 0.005 and 0.00025 μg/ml were tested on a set of T cell lines derived from 9 grass pollen allergic donors (same experiment as the data shown in FIG. 7b.).
B) Concentrations of 2.0, 0.066, 0.0022 and 0.00007 μg/ml were used on a set of T cell lines derived from 18 grass pollen allergic donors (same set as the donors used for testing of single peptides as described above).
Relative magnitude value for a peptide or a peptide combination was calculated as percentage of highest T cell response to an allergen or a mix, by the same donor. In this way, allergen or peptide combination with highest magnitude of T cell response gets a value of 100 and T cell response magnitude of remaining peptides/peptide combinations are normalized or calculated relative to 100, for example Relative magnitude=100*(T cell response magnitude of peptide or combination/Highest T cell response in a donor). […]

## AYESYKFIPALEAAVKQAYA-OH [peptide 285]
[1]; degradation details at 60 min
  <−3aa (%): 0%
  Sum full length or −1aa to −3aa: 100%
  −1aa to −3aa (%): 34%
[1]; male, 37° C.
  half-life: 1.37 h
[1]; male, degradation details at 60 min, read-out: Full length (%)
  remaining at 1 h: 66%

## STGGAYESYKFIPALEAAVK-OH [compound 71]
[2]
  average relative magnitude calculated over all donors: high
